In publication PMC7730182, “Synthesis and in Silico Modelling of the Potential Dual Mechanistic Activity of Small Cationic Peptides Potentiating the Antibiotic Novobiocin against Susceptible and Multi-Drug Resistant Escherichia coli” (International Journal of Molecular Sciences, 2020):
Where a SMILES comes first, the peptide text is derived from it. The star is where a group is joined. βNA = c1ccc2cc(N*)ccc2c1

Legend:
Assay type in all cases: cell-based, Escherichia coli
[1] = tested on: susceptible E. coli NCTC 10418; test: Novobiocin potentiation assay (MIC of novobiocin with fixed concentration of peptide or PAβN); design: key to MIC of Novobiocin, E. coli NCTC 10418, +128 μg/mL added peptide / MIC of Novobiocin, E. coli NCTC 10418, +32 μg/mL added peptide: Non potentiating (NP) indicated no reduction in the MIC of novobiocin was observed; conditions: for MIC of Novobiocin, E. coli NCTC 10418, +32 μg/mL added peptide / MIC of Novobiocin, E. coli NCTC 10418, +128 μg/mL added peptide: Iso-Sensitest Broth, 5 × 10^5 CFU/mL, visual read-out; for MIC of Novobiocin, E. coli NCTC 10418, +32 μg/mL added peptide: fixed 32 μg/mL peptide; for MIC of Novobiocin, E. coli NCTC 10418, +128 μg/mL added peptide: fixed 128 μg/mL peptide
Experimental: (§1) The peptides were also tested in combination with antibiotics novobiocin and norfloxacin. Novobiocin has low efficacy against Gram-negative bacteria due to its hydrophobicity, giving limited cell permeability.
(§2) The antibacterial activity of the peptides and peptide/antibiotic combinations were tested by the broth microdilution assay according to [24]. Escherichia coli NCTC 10,418 and Staphylococcus aureus NCTC 12,981 were obtained from the National Collection of Type Cultures, UK. Escherichia coli G69 was a clinical isolate as previously described.
(§3) Briefly, all bacterial strains were cultured on nutrient agar (Sigma-Aldrich, Gillingham, UK) plates and incubated for 24 h at 37 °C prior to MIC determination. In addition, known quantities of each test sample were dissolved in DMSO and then diluted in ISB (Iso- Sensitest Broth, Oxoid, Basingstoke, UK) to give a range concentration of 128–0 μg/mL, unless stated differently. […] Finally, the overnight cultures of each of the tested strains were suspended to an inoculum density of approximately 1.0 × 10^8 CFU/mL in phosphate buffered saline (PBS), consisting of 137 mM NaCl, 3 mM KCl, 8 mM Na2HPO4, and […] (Oxoid, Basingstoke, UK). The cell suspensions were standardized by adjusting the optical density to 0.1 at 600 nm (Thermo Scientific UV-Vis Spectrophotometer, Abingdon, UK) before being diluted 1:100 in ISB prior to inoculation
(§4) The assays were performed by microdilution using 96-well microtiter plates with a final inoculum of 5 × 10^5 CFU/mL and each sample was tested in duplicate in at least two independent experiments in order to confirm the reliability of the data. Results were determined by visual inspection of the wells and the presence of an evident opaque medium or white pellets were indicative of bacterial growth. The MIC values were recorded as the lowest concentration at which no bacterial growth was detected.

[2] = tested on: multi-drug resistant clinical isolate E. coli G69; test: as above; design: key to MIC of Novobiocin, E. coli G69, +32 μg/mL added peptide / MIC of Novobiocin, E. coli G69, +128 μg/mL added peptide: Non potentiating (NP) indicated no reduction in the MIC of novobiocin was observed; conditions: for potentiation of novobiocin against multi-drug resistant E. coli, result in words: E. coli G69, added peptide; for MIC of Novobiocin, E. coli G69, +128 μg/mL added peptide / MIC of Novobiocin, E. coli G69, +32 μg/mL added peptide: Iso-Sensitest Broth, 5 × 10^5 CFU/mL, visual read-out; for MIC of Novobiocin, E. coli G69, +128 μg/mL added peptide: fixed 128 μg/mL peptide; for MIC of Novobiocin, E. coli G69, +32 μg/mL added peptide: fixed 32 μg/mL peptide
Experimental: as §1, §2, §3, §4

[3] = tested on: multidrug resistant clinical isolate E. coli G69; test: Norfloxacin potentiation assay (MIC of norfloxacin with fixed concentration of peptide or PAβN); conditions: broth microdilution, duplicate; for MIC of norfloxacin, E. coli G69, +128 μg/mL of peptide: fixed 128 μg/mL peptide
Experimental: (§5) In order to gather more evidence on the potential mechanisms of action, the effects of the peptides in combination with the quinolone antibiotic norfloxacin were determined. Norfloxacin is active against Gram-negative bacteria, generally achieving entry via porin channels, but is also able to enter the bacterial cell via the membrane in porin-deficient mutants. Therefore, any membrane permeability mechanism would not be expected to have a significant effect on improving the activity of norfloxacin in porin-competent strains. This is indeed what was observed (Table S5), which added weight to our hypothesis that our very short peptides may be acting as membrane permeability enhancers for novobiocin.
as §2
as §3, with “inoculation […]” for “inoculation”
(§6) The assays were performed by microdilution using 96-well microtiter plates with a final inoculum of 5 × 10^5 CFU/mL and each sample was tested in duplicate in at least two independent experiments in order to confirm the reliability of the data. Results were determined by visual inspection of the wells and the presence of an evident opaque medium or white pellets were indicative of bacterial growth. The MIC values were recorded as the lowest concentration at which no bacterial growth was detected. […]
(§7) potentiating novobiocin. Assays were performed at fixed concentration of 128 μg/mL against susceptible E. coli 10418 and multidrug resistant clinical isolate E. coli G69. Potentiation assay for norfloxacin was also performed in presence of 64 μg/mL of RND efflux pump inhibitor PAβN. All tests were repeated in […]
(§8) Compound Sequence MIC of norfloxacin (μg/mL) […]
(§9) inhibitor PaβN but no potentiation was observed, so the assay was not repeated at lower concentrations.

[4] = tested on: susceptible E. coli 10418; test: as above; conditions: broth microdilution, duplicate; for MIC of norfloxacin, E. coli 10418, +128 μg/mL of peptide: fixed 128 μg/mL peptide
Experimental: as §5, §2
as §3, with “inoculation […]” for “inoculation”
as §6, §7, §8, §9

[5] = fixed 32 μg/mL PAβN, broth microdilution, duplicate
[6] = fixed 64 μg/mL PAβN, broth microdilution, duplicate

RPPWRPPW [Compound 26]
MIC of Novobiocin, E. coli NCTC 10418, +32 μg/mL added peptide ([1]; broth microdilution, duplicate): 64 µg/mL | MIC of Novobiocin, E. coli NCTC 10418, +128 μg/mL added peptide ([1]; broth microdilution, duplicate): 8 µg/mL | potentiation of novobiocin against multi-drug resistant E. coli, result in words [2]: no potentiation was seen against the multidrug resistant strain | MIC of Novobiocin, E. coli G69, +128 μg/mL added peptide ([2]; broth microdilution, duplicate): NP | MIC of norfloxacin, E. coli G69, +128 μg/mL of peptide [3]: > 128 µg/mL

RWRW [Compound 5, short cationic peptide RWRW, amidated at the C-terminus]
MIC of Novobiocin, E. coli NCTC 10418, +32 μg/mL added peptide ([1]; broth microdilution, duplicate): 64 µg/mL | MIC of Novobiocin, E. coli NCTC 10418, +128 μg/mL added peptide ([1]; broth microdilution, duplicate): 2 µg/mL | MIC of Novobiocin, E. coli G69, +32 μg/mL added peptide ([2]; broth microdilution, duplicate): 64 µg/mL | MIC of Novobiocin, E. coli G69, +128 μg/mL added peptide ([2]; broth microdilution, duplicate): 16 µg/mL | MIC of norfloxacin, E. coli G69, +128 μg/mL of peptide [3]: > 128 µg/mL | MIC of norfloxacin, E. coli 10418, +128 μg/mL of peptide [4]: 0.062 µg/mL

WKWK [Compound 13, short cationic peptide WKWK, amidated at the C-terminus]
MIC of Novobiocin, E. coli NCTC 10418, +128 μg/mL added peptide ([1]; broth microdilution, duplicate): NP | MIC of Novobiocin, E. coli G69, +128 μg/mL added peptide ([2]; broth microdilution, duplicate): NP

RFRF [Compound 9, short cationic peptide RFRF, amidated at the C-terminus]
MIC of Novobiocin, E. coli NCTC 10418, +32 μg/mL added peptide ([1]; broth microdilution, duplicate): NP | MIC of Novobiocin, E. coli NCTC 10418, +128 μg/mL added peptide ([1]; broth microdilution, duplicate): 2 µg/mL | MIC of Novobiocin, E. coli G69, +32 μg/mL added peptide ([2]; broth microdilution, duplicate): 128 µg/mL | MIC of Novobiocin, E. coli G69, +128 μg/mL added peptide ([2]; broth microdilution, duplicate): 8 µg/mL | MIC of norfloxacin, E. coli G69, +128 μg/mL of peptide [3]: > 128 µg/mL | MIC of norfloxacin, E. coli 10418, +128 μg/mL of peptide [4]: 0.062 µg/mL

FRRQRF [Compound 21, short cationic peptide FRRQRF, C-terminal amide; commercial sample from ThermoFisher]
MIC of Novobiocin, E. coli NCTC 10418, +128 μg/mL added peptide ([1]; broth microdilution, duplicate): NP ^† | MIC of Novobiocin, E. coli G69, +128 μg/mL added peptide ([2]; broth microdilution, duplicate): NP | MIC of norfloxacin, E. coli G69, +128 μg/mL of peptide [3]: > 128 µg/mL | MIC of norfloxacin, E. coli 10418, +128 μg/mL of peptide [4]: 0.062 µg/mL

FRFR [Compound 8, short cationic peptide FRFR, amidated at the C-terminus]
MIC of Novobiocin, E. coli NCTC 10418, +128 μg/mL added peptide ([1]; broth microdilution, duplicate): NP | MIC of Novobiocin, E. coli G69, +32 μg/mL added peptide ([2]; broth microdilution, duplicate): NP | MIC of Novobiocin, E. coli G69, +128 μg/mL added peptide ([2]; broth microdilution, duplicate): 8 µg/mL

KWKW [Compound 14, short cationic peptide KWKW, amidated at the C-terminus]
MIC of Novobiocin, E. coli NCTC 10418, +128 μg/mL added peptide ([1]; broth microdilution, duplicate): NP | MIC of Novobiocin, E. coli G69, +128 μg/mL added peptide ([2]; broth microdilution, duplicate): NP

RRFRF [Compound 11, short cationic peptide RRFRF, amidated at the C-terminus]
MIC of Novobiocin, E. coli NCTC 10418, +128 μg/mL added peptide ([1]; broth microdilution, duplicate): 64 µg/mL | MIC of Novobiocin, E. coli G69, +128 μg/mL added peptide ([2]; broth microdilution, duplicate): 64 µg/mL

NC(N)=NCCC[C@H](NC(=O)[C@@H](N)Cc1ccccc1)C(=O)Nc1ccc2ccccc2c1 [PAβN, phenylalanine-arginine-β-naphthylamide, reference compound] (H-Phe-Arg-βNA)
reduction in MIC for novobiocin, susceptible E. coli 10418 ([1]; PAβN concentration of 72 μM (32 μg/mL)): twofold | MIC of Novobiocin, E. coli NCTC 10418, +32 μg/mL PAβN [1, 5]: 16 µg/mL | MIC of Novobiocin, E. coli NCTC 10418, +64 μg/mL PAβN [1, 6]: 8 µg/mL | MIC of Novobiocin, E. coli G69, +32 μg/mL PAβN [2, 5]: 8 µg/mL | MIC of Novobiocin, E. coli G69, +64 μg/mL PAβN [2, 6]: 2 µg/mL | concentration at which synergism with novobiocin is provided against multi-drug resistant E. coli G69 ([2]; molar equivalent of the 32 μg/mL fixed concentration): 72 µM | MIC of norfloxacin, E. coli G69, +64 μg/mL PAβN ([3]; fixed 64 μg/mL PAβN): > 128 µg/mL | MIC of norfloxacin, E. coli 10418, +64 μg/mL PAβN ([4]; fixed 64 μg/mL PAβN): 0.125 µg/mL

RPRPRPL [Compound 22, proline-rich cationic peptide RPRPRPL, amidated at the C-terminus]
potentiation of the MIC of novobiocin, result in words ([1]; added peptide, wording covers susceptible and multi-drug resistant strain): did not show any significant potentiation | MIC of Novobiocin, E. coli NCTC 10418, +128 μg/mL added peptide ([1]; broth microdilution, duplicate): NP | MIC of Novobiocin, E. coli G69, +128 μg/mL added peptide ([2]; broth microdilution, duplicate): NP | MIC of norfloxacin, E. coli G69, +128 μg/mL of peptide [3]: > 128 µg/mL | MIC of norfloxacin, E. coli 10418, +128 μg/mL of peptide [4]: 0.062 µg/mL

FRFRF [Compound 10, short cationic peptide FRFRF, amidated at the C-terminus]
MIC of Novobiocin, E. coli NCTC 10418, +128 μg/mL added peptide ([1]; broth microdilution, duplicate): 2 µg/mL | potentiation of novobiocin against multi-drug resistant E. coli, result in words [2]: restore the susceptibility | MIC of Novobiocin, E. coli G69, +32 μg/mL added peptide ([2]; broth microdilution, duplicate): 8 µg/mL | MIC of Novobiocin, E. coli G69, +128 μg/mL added peptide ([2]; broth microdilution, duplicate): 4 µg/mL

WRRQRW [Compound 20, short cationic peptide WRRQRW, C-terminal amide; commercial sample from ThermoFisher]
MIC of Novobiocin, E. coli NCTC 10418, +32 μg/mL added peptide ([1]; broth microdilution, duplicate): 16 µg/mL | MIC of Novobiocin, E. coli NCTC 10418, +128 μg/mL added peptide ([1]; broth microdilution, duplicate): 4 µg/mL | MIC of Novobiocin, E. coli G69, +32 μg/mL added peptide ([2]; broth microdilution, duplicate): NP | MIC of Novobiocin, E. coli G69, +128 μg/mL added peptide ([2]; broth microdilution, duplicate): 32 µg/mL | MIC of norfloxacin, E. coli G69, +128 μg/mL of peptide [3]: > 128 µg/mL | MIC of norfloxacin, E. coli 10418, +128 μg/mL of peptide [4]: 0.062 µg/mL

FKFKF [Compound 19, short cationic peptide FKFKF, amidated at the C-terminus]
MIC of Novobiocin, E. coli NCTC 10418, +32 μg/mL added peptide ([1]; broth microdilution, duplicate): 128 µg/mL | MIC of Novobiocin, E. coli NCTC 10418, +128 μg/mL added peptide ([1]; broth microdilution, duplicate): 4 µg/mL | potentiation of novobiocin against multi-drug resistant E. coli, result in words [2]: restore the susceptibility | MIC of Novobiocin, E. coli G69, +32 μg/mL added peptide ([2]; broth microdilution, duplicate): 32 µg/mL | MIC of Novobiocin, E. coli G69, +128 μg/mL added peptide ([2]; broth microdilution, duplicate): 8 µg/mL

FKFK [Compound 17, short cationic peptide FKFK, amidated at the C-terminus]
MIC of Novobiocin, E. coli NCTC 10418, +128 μg/mL added peptide ([1]; broth microdilution, duplicate): NP | MIC of Novobiocin, E. coli G69, +128 μg/mL added peptide ([2]; broth microdilution, duplicate): NP

KFKF [Compound 18, short cationic peptide KFKF, amidated at the C-terminus]
MIC of Novobiocin, E. coli NCTC 10418, +128 μg/mL added peptide ([1]; broth microdilution, duplicate): NP | MIC of Novobiocin, E. coli G69, +128 μg/mL added peptide ([2]; broth microdilution, duplicate): NP
